Assay results taken from patent publication US20060069132A1, “Azolecarboxamide herbicides” (priority 2004, published 2006).

Key:
barnyardgrass [1] = assay: Test B pre-/postemergence herbicide test; format: in vivo, Echinochloa crus-galli; settings: for Barnyardgrass plant response rating: Postemergence, scale 0 (no effect) to 100 (complete control)
Procedure, shortened: (§1)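 Pre: seeds sown, then sprayed. Post: 1–4-leaf plants (2–18 cm) sprayed at the same time. Paddy: flooded, treated at 2-leaf stage. Formulation: non-phytotoxic solvent with surfactant. Greenhouse 13–15 days; visual 0–100 score relative to controls.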

Surinam grass = assay: Test B pre-/postemergence herbicide test; format: in vivo, Urochloa decumbens
Procedure, shortened: (§2)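 Visual rating, 0 (no effect) to 100 (complete control), versus untreated controls after 13–15 d in greenhouse. Pre- and postemergence applications (postemergence plants 2–18 cm, 1–4 leaves); flooded paddy arm at 2-leaf stage. Compounds in non-phytotoxic solvent plus surfactant.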

cocklebur = assay: Test B pre-/postemergence herbicide test; format: in vivo, Xanthium strumarium
Procedure, shortened: as §1

corn = assay: Test B pre-/postemergence herbicide test; format: in vivo, Zea mays
Procedure, shortened: as §2

large crabgrass = assay: Test B pre-/postemergence herbicide test; format: in vivo, Digitaria sanguinalis
Procedure, shortened: as §2

giant foxtail = assay: Test B pre-/postemergence herbicide test; format: in vivo, Setaria faberi
Procedure, shortened: as §2

lambsquarters = assay: Test B pre-/postemergence herbicide test; format: in vivo, Chenopodium album
Procedure, shortened: as §2

morningglory = assay: Test B pre-/postemergence herbicide test; format: in vivo, Ipomoea coccinea
Procedure, shortened: as §1

pigweed = assay: Test B pre-/postemergence herbicide test; format: in vivo, Amaranthus retroflexus
Procedure, shortened: as §2

velvetleaf = assay: Test B pre-/postemergence herbicide test; format: in vivo, Abutilon theophrasti
Procedure, shortened: as §2

blackgrass = assay: Test B postemergence herbicide test; format: in vivo, Alopecurus myosuroides
Procedure, shortened: (§3)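 Read-out: visual comparison with controls, scored 0 to 100, where 100 means complete control and 0 no effect. Formulated chemicals were applied postemergence to plants 2–18 cm tall (1- to 4-leaf), or to flooded-paddy plants at the 2-leaf stage, then held 13 to 15 days under glass.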

wheat = assay: Test B postemergence herbicide test; format: in vivo, Triticum aestivum; set-up: key to Wheat plant response rating: 0 = no effect, 100 = complete control
Procedure, shortened: (§4)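 Scale 0–100: zero equals no visible effect, 100 complete control, judged by eye relative to controls. Timing: 13 to 15 days in greenhouse post-treatment. Growth stage at spraying: two leaves (paddy) or one to four leaves, 2–18 cm (postemergence).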

wild oat = assay: Test B postemergence herbicide test; format: in vivo, Avena fatua
Procedure, shortened: as §4

rice [2] = assay: Test B flooded paddy test; format: in vivo, Oryza sativa; settings: 1000 g ai/ha, scale 0 to 100 (0 no effect, 100 complete control)
Procedure, shortened: as §3

[3] = system: small flower umbrella sedge; assay: Test B flooded paddy test; format: in vivo, Cyperus difformis; settings: 1000 g ai/ha, scale 0 to 100 (0 no effect, 100 complete control)
Procedure, shortened: as §3

ducksalad [4] = assay: Test B flooded paddy test; format: in vivo, Heteranthera limosa; settings: 1000 g ai/ha, scale 0 to 100 (0 no effect, 100 complete control)
Procedure, shortened: as §3

barnyardgrass [5] = assay: Test B flooded paddy test; format: in vivo, Echinochloa crus-galli; settings: 1000 g ai/ha, scale 0 to 100 (0 no effect, 100 complete control)
Procedure, shortened: as §3

rice [6] = assay: Test C flooded paddy test; format: in vivo, Oryza sativa
Protocol: (§5) At the same time, plants selected from these crop and weed species and also winter barley (Hordeum vulgare L.), blackgrass (Alopecurus myosuroides Huds.), canarygrass (Phalaris minor Retz.), chickweed (Stellaria media (L.) Vill.), downy bromegrass (Bromus tectorum L.), green foxtail (Setaria viridis (L.) Beauv.), Italian ryegrass (Lolium multiflorum Lam.), wheat (Triticum aestivum L.), wild oat (Avenafatua L.) and windgrass (Apera spica-venti (L.) Beauv.) were treated with postemergence applications of some of the test chemicals formulated in the same manner. Plants ranged in height from 2 to 18 cm (1- to 4-leaf stage) for postemergence treatments. Plant species in the flooded paddy test consisted of rice (Oryza sativa), smallflower umbrella sedge (Cyperus difformis L.), ducksalad (Heteranthera limosa (Sw.) Willd.) and barnyardgrass (Echinochloa crus-galli (L.) Beauv.) grown to the 2-leaf stage for testing. Treated plants and controls were maintained in a greenhouse for 12 to 14 days, after which time all species were compared to controls and visually evaluated. Plant response ratings, summarized in Table C, are based on a scale of 0 to 100 where 0 is no effect and 100 is complete control. A dash (-) response means no test result.

[7] = system: smallflower umbrella sedge; assay: Test C flooded paddy test; format: in vivo, Cyperus difformis
Protocol: as §5

ducksalad [8] = assay: Test C flooded paddy test; format: in vivo, Heteranthera limosa
Protocol: as §5

barnyardgrass [9] = assay: Test C flooded paddy test; format: in vivo, Echinochloa crus-galli
Protocol: as §5

[10] = 125 g ai/ha, 0 is no effect, 100 is complete control, preemergence
[11] = Postemergence, 500 g ai/ha, scale 0 (no effect) to 100 (complete control)
[12] = postemergence, 125 g ai/ha, scale 0 to 100
[13] = 125 g ai/ha, scale 0 to 100 (0 no effect, 100 complete control)
[14] = 250 g ai/ha, scale of 0 to 100, 0 is no effect, 100 is complete control
[15] = 500 g ai/ha, visual rating after 12 to 14 days, scale 0 to 100 (0 no effect, 100 complete control)

Q: What does the source list for `CCc1nn(C(C)C)nc1C(=S)Nc1cccc(C(=S)N(C)C)c1` [Compound 410]?
A: Plant response rating (0 to 100 scale), Barnyardgrass (barnyardgrass [1]; [10]): 100; Barnyardgrass plant response rating (barnyardgrass [1]; 125 g ai/ha): 0; Barnyardgrass plant response rating (barnyardgrass [1]; 500 g ai/ha): 0; Plant response rating (0 to 100 scale), Surinam Grass (Surinam grass; [10]): 60; Surinam Grass plant response rating (Surinam grass; [11]): 0; Surinam Grass plant response rating (Surinam grass; [12]): 0; Plant response rating (0 to 100 scale), Cocklebur (cocklebur; [10]): 0; Cocklebur plant response rating (cocklebur; [11]): 10; Cocklebur plant response rating (cocklebur; [12]): 0; Plant response rating (0 to 100 scale), Corn (corn; [10]): 0; Corn plant response rating (corn; [11]): 10; Corn plant response rating (corn; [12]): 0; Plant response rating (0 to 100 scale), Crabgrass, Large (large crabgrass; [10]): 90; Crabgrass, Large plant response rating (large crabgrass; [11]): 20; Crabgrass, Large plant response rating (large crabgrass; [12]): 0; Plant response rating (0 to 100 scale), Foxtail, Giant (giant foxtail; [10]): 30; Foxtail, Giant plant response rating (giant foxtail; [11]): 20; Foxtail, Giant plant response rating (giant foxtail; [12]): 10; Plant response rating (0 to 100 scale), Lambsquarters (lambsquarters; [10]): 100; Lambsquarters plant response rating (lambsquarters; [11]): 70; Lambsquarters plant response rating (lambsquarters; [12]): 20; Plant response rating (0 to 100 scale), Morningglory (morningglory; [10]): 30; Morningglory plant response rating (morningglory; [11]): 80; Morningglory plant response rating (morningglory; [12]): 0; Plant response rating (0 to 100 scale), Pigweed (pigweed; [10]): 60; Pigweed plant response rating (pigweed; [11]): 70; Pigweed plant response rating (pigweed; [12]): 0; Plant response rating (0 to 100 scale), Velvetleaf (velvetleaf; [10]): 30; Velvetleaf plant response rating (velvetleaf; [11]): 0; Velvetleaf plant response rating (velvetleaf; [12]): 0; Blackgrass plant response rating (blackgrass; [11]): 30; Blackgrass plant response rating (blackgrass; [12]): 10; Wheat plant response rating (wheat; 500 g ai/ha, scale 0 to 100, 0 no effect, 100 complete control, preemergence): 90; Wheat plant response rating (wheat; [11]): 10; Wheat plant response rating (wheat; [12]): 0; Oat, Wild plant response rating (wild oat; [11]): 10; Oat, Wild plant response rating (wild oat; [12]): 0; Rice plant response rating (rice [2]): 60; Sedge, Umbrella plant response rating [3]: 80; Ducksalad plant response rating (ducksalad [4]): 80; Barnyardgrass plant response rating (barnyardgrass [5]): 80; Rice plant response rating (rice [6]; 62 g ai/ha, scale 0 to 100): 20; Rice plant response rating (rice [6]; [13]): 40; Rice plant response rating (rice [6]; [14]): 60; Plant response rating, Rice (rice [6]; [15]): 60; Sedge, Umbrella plant response rating ([7]; 62 g ai/ha, scale 0 to 100): 70; Sedge, Umbrella plant response rating [7, 13]: 75; Sedge, Umbrella plant response rating [7, 14]: 80; Plant response rating, Sedge, Umbrella [7, 15]: 85; Ducksalad plant response rating (ducksalad [8]; 62 g ai/ha, scale 0 to 100): 30; Ducksalad plant response rating (ducksalad [8]; [13]): 40; Ducksalad plant response rating (ducksalad [8]; [14]): 60; Plant response rating, Ducksalad (ducksalad [8]; [15]): 60; Barnyardgrass plant response rating (barnyardgrass [9]; 62 g ai/ha, scale 0 to 100 (0 no effect, 100 complete control)): 0; Barnyardgrass plant response rating (barnyardgrass [9]; [13]): 20; Barnyardgrass plant response rating (barnyardgrass [9]; [14]): 60; Plant response rating, Barnyardgrass (barnyardgrass [9]; [15]): 65
